US20140155330A1, “Compositions And Methods For Modulating Apoptosis” (Yeda Research and Development Co. Ltd., priority 2011, published 2014)
One block for each molecule: values may come before it.

Legend:
[1] = system: Flag-tagged human Atg12 (wild type)
[2] = biological target: Atg12-Bcl-2 interaction (Homo sapiens, UniProt P10415); assay: Co-immunoprecipitation of Flag-Atg12 with endogenous Bcl-2, competition by Bcl-2 inhibitor; type: binding; conditions: Atg12 immunoprecipitates from HEK293 cells incubated with 10 μM ABT-737 vs DMSO; western blot (FIG. 5G)
Atg12-Bcl-2 interaction (Homo sapiens, UniProt P10415), sequence (P10415 whole entry, the tested form may be a part): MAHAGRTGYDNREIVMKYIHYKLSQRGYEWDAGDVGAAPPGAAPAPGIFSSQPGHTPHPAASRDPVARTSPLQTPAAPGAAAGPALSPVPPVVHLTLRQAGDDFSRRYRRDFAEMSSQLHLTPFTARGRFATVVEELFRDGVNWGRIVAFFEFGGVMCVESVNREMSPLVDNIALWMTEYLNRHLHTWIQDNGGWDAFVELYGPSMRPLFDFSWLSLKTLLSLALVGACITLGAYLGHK
From the text: (A) Sequence alignment of the BH3-like region of Atg12 with BH3 domains of the Bcl-2 family using ClustalW. […] Species abbreviations: Hs, Homo sapiens; Sc, Saccharomyces cerevisiae; Dm, Drosophila melanogaster. (B) Co-immunoprecipitation of Flag-tagged hAtg12 and Bcl-2 or Mcl-1 from HEK293 cells co-transfected as indicated. (C) Co-immunoprecipitation of Flag-tagged hAtg12 with endogenous Bcl-2 and Mcl-1 from HEK293 cells. (D) Co-immunoprecipitation of endogenous Atg12 and endogenous Mcl-1 in HEK293 and HeLa cells. (E) Co-immunoprecipitation of Flag-tagged Atg12 and endogenous Bcl-2 in HeLa cells treated with STS (3 μM; 4 h). (F) Co-immunoprecipitation of Flag-tagged Atg12 and endogenous Bcl-2 in HEK293 cells co-expressing a control plasmid (CAT) or HA-tagged BAD. (G) Flag-Atg12 was immunoprecipitated from HEK293 cells and incubated with either 10 μM ABT-737 or DMSO (vehicle control). Co-precipitating Bcl-2 was assessed by western blot after elution with excess Flag peptide. (H) Co-immunoprecipitation of wild-type Atg12 or Atg12/D64 mutants with Bcl-2 in HEK293 cells co-transfected as indicated.

[3] = biological target: Atg12-Mcl-1 interaction (Homo sapiens, UniProt Q07820); assay: Co-immunoprecipitation of Flag-Atg12 with Mcl-1, competition by Bcl-2 inhibitor; type: binding; conditions: Atg12 immunoprecipitates from HEK293 cells incubated with 10 μM ABT-737 (FIG. 5G)
Atg12-Mcl-1 interaction, sequence (Q07820 whole entry): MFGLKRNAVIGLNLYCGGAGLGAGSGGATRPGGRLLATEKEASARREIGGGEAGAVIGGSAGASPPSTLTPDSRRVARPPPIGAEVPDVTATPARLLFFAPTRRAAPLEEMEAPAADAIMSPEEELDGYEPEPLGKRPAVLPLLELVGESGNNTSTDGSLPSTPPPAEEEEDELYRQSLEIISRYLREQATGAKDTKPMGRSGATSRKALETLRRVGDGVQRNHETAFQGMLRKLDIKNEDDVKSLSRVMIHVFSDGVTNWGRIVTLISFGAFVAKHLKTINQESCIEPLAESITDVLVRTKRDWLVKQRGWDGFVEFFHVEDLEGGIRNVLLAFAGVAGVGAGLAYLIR

[4] = system: Bax; assay: Immunoprecipitation of conformationally active Bax (6A7 antibody) from HeLa cells; type: cell-based, human; conditions: HeLa cells treated with STS; conformation-specific antibody 6A7 (FIG. 11C)
Method: Conformationally active Bax was immunoprecipitated with anti-Bax antibody (6A7, Abcam). Cell pellets from STS-treated HeLa cells (3 μM, 4 h; Sigma Aldrich) were resuspended in 1% CHAPS (3-[(3-cholamidopropyl)-dimethylammonio]-1-propanesulfonate) buffer supplemented with protease and phosphatase inhibitors. Pre-cleared cell lysates were incubated with 2 μg antibody overnight at 4° C., followed by incubation with protein G agarose beads. Beads were washed with lysis buffer and boiled in sample buffer. Western blot detection of total Bax was performed with anti-Bax N20 antibody (Santa Cruz Biotechnology).
Next, it was assessed whether the depletion of Atg12 affected early events in the apoptotic cascade that are regulated by anti-apoptotic Bcl-2 proteins. […] Importantly, Bax activation was restored upon enforced expression of an siRNA-resistant construct of Atg12 (FIG. 11D).

[5] = system: Atg12-Bcl-2 interaction; assay: Co-immunoprecipitation of Flag-tagged Atg12 and endogenous Bcl-2 in STS-treated HeLa cells; type: cell-based, human; conditions: STS 3 μM, 4 h (FIG. 5E)
From the text: (A) Sequence alignment of the BH3-like region of Atg12 with BH3 domains of the Bcl-2 family using ClustalW. The four conserved BH3 hydrophobic residues are colored in grey, and the conserved “GD” residues in black. Arrow indicates critical Asp64 residue in hAtg12. Species abbreviations: Hs, Homo sapiens; Sc, Saccharomyces cerevisiae; Dm, Drosophila melanogaster. (B) Co-immunoprecipitation of Flag-tagged hAtg12 and Bcl-2 or Mcl-1 from HEK293 cells co-transfected as indicated. (C) Co-immunoprecipitation of Flag-tagged hAtg12 with endogenous Bcl-2 and Mcl-1 from HEK293 cells. (D) Co-immunoprecipitation of endogenous Atg12 and endogenous Mcl-1 in HEK293 and HeLa cells. (E) Co-immunoprecipitation of Flag-tagged Atg12 and endogenous Bcl-2 in HeLa cells treated with STS (3 μM; 4 h). (F) Co-immunoprecipitation of Flag-tagged Atg12 and endogenous Bcl-2 in HEK293 cells co-expressing a control plasmid (CAT) or HA-tagged BAD. (G) Flag-Atg12 was immunoprecipitated from HEK293 cells and incubated with either 10 μM ABT-737 or DMSO (vehicle control). Co-precipitating Bcl-2 was assessed by western blot after elution with excess Flag peptide. (H) Co-immunoprecipitation of wild-type Atg12 or Atg12/D64 mutants with Bcl-2 in HEK293 cells co-transfected as indicated. In B, C, F-H, DAP1-Flag was used instead of Flag-Atg12 as a negative control for co-immunoprecipitation. […]

[6] = biological target: T1, Flag-tagged Bcl-2 (UniProt P10415 1-239); assay: immunoprecipitation of Flag-tagged Bcl-2, western blot for endogenous Atg12
T1 construct: Expressed in HEK293 cells and immunoprecipitated on anti-FLAG beads; also called Flag-Bcl-2; not shown: Flag tag
T1 sequence (P10415 whole entry): as the sequence (P10415 whole entry, the tested form may be a part) above
Method: (§1) For co-immunoprecipitation, HEK293 cells were transiently transfected with the indicated plasmids. Cell pellets were lysed in B buffer (0.4% NP-40, 0.5 mM EDTA, 100 mM KCl, 20 mM Hepes pH 7.6, 20% glycerol) supplemented with protease and phosphatase inhibitors. […] In Example 7, an irrelevant tagged protein (DAP1-Flag) was used as control.
The conjugation of Atg12 to Atg5 is an essential step in the process of autophagy. In order to establish whether Bcl-2 binds to free Atg12, or to the Atg5-Atg12 conjugate, the nature of endogenous Atg12 that is co-immunoprecipitated with Bcl-2 was examined more closely. Upon immunoprecipitation of Flag-tagged Bcl-2 from HEK293 cells, a single band corresponding to the size of unconjugated Atg12 was observed, with no traces at the expected conjugate size (FIG. 7A, left). Furthermore, neither of Atg12's reported conjugation partners, Atg5 or Atg3, could be detected on this blot. […] The interaction between Bcl-2 and free Atg12 is significant, considering that unconjugated Atg12 represents only a small fraction of cellular Atg12, whereas the majority of the protein is conjugated to Atg5, even under basal conditions when autophagy is not induced (FIG. 7A, right).

[7] = biological target: T2, Bcl-2 G145A (UniProt P10415 1-239); assay: co-immunoprecipitation, transiently transfected HEK293 cells
T2 construct: Co-transfected with Flag-Atg12 in HEK293 cells; also called point mutation in the BH1 domain of Bcl-2
T2 sequence (P10415 whole entry G145A, the tested form may be a part): as the sequence (P10415 whole entry, the tested form may be a part) above, with G145A counted along it
Method: as §1
Therefore experiments were performed to test whether Atg12 was able to interact with members of each subgroup, specifically Bcl-2 and Mcl-1. In transiently transfected HEK293 cells, wild-type Bcl-2 co-immunoprecipitated with Flag-Atg12 (FIG. 5B). […] The specificity of the interaction was further confirmed by reciprocal co-immunoprecipitation, in which Flag-Bcl-2 pulled down ectopically expressed Atg12 (FIG. 6B). In addition, Mcl-1 also co-immunoprecipitated with Flag-Atg12 upon co-expression (FIG. 5B), and Flag-Atg12 interacted with endogenous Bcl-2 and Mcl-1 (FIG. 5C). Thus, Atg12 is able to bind promiscuously to both subgroups of Bcl-2-related proteins.

Molecule: recombinant p38 purified from bacteria
- in-vitro kinase assay (33P-ATP); phospho-mapping by mass spectrometry [1]: p38 phosphorylates Atg12 in an in-vitro kinase assay; the site of phosphorylation was Thr65 in Atg12

Molecule: CN[C@@H]1C[C@H]2O[C@@](C)([C@@H]1OC)n1c3ccccc3c3c4c(c5c6ccccc6n2c5c31)C(=O)NC4 [STS, staurosporine]
- Bax activation [4]: activation of Bax
- binding of Flag-Atg12 to endogenous Bcl-2 [5]: increased

The next lines start with the values.

- interaction between Flag-Atg12 and endogenous Bcl-2 [2]: disrupted
- binding of Atg12 to Mcl-1 [3]: not affected
Molecule: CN(C)CC[C@H](CSc1ccccc1)Nc1ccc(S(=O)(=O)NC(=O)c2ccc(N3CCN(Cc4ccccc4-c4ccc(Cl)cc4)CC3)cc2)cc1[N+](=O)[O-] [ABT-737]

- binding result [6]: binds
B1: Atg12 (human; untagged, endogenous, or tag not stated) (other)
chain: MAEEPQSVLQLPTSIAAGGEGLTDVSPETTTPEPPSSAAVSPGTEEPAGDTKKKIDILLKAVGDTPIMKTKKWAVERTRTIQGLIDFIKKFLKLVASEQLFIYVNQSFAPSPDQEVGTLYECFGSDGKLVLHYCKSQAWG
notes: also called hAtg12; endogenous Atg12

- binding result [7]: no binding
B2: Flag-tagged human Atg12 (wild type) (other)
chain: MAEEPQSVLQLPTSIAAGGEGLTDVSPETTTPEPPSSAAVSPGTEEPAGDTKKKIDILLKAVGDTPIMKTKKWAVERTRTIQGLIDFIKKFLKLVASEQLFIYVNQSFAPSPDQEVGTLYECFGSDGKLVLHYCKSQAWG
notes: Expressed from pcDNA3 in HEK293 or HeLa cells and pulled down on anti-FLAG M2 beads; Also used here for the recombinant Atg12 made in E. coli and purified on FLAG-agarose (kinase assay); also called Flag-Atg12; Flag-tagged hAtg12; not shown: Flag tag
